Measurements taken from ChEMBL document CHEMBL4334511, “Trivirensols: Selectively Bacteriostatic Sesquiterpene Trimers from the Australian Termite Nest-Derived Fungus Trichoderma virens CMB-TN16” (J Nat Prod, 2019).
The source made the active and inactive calls. No cut-off for these calls is given here.

Experiments:
SW-620 = assay: Cytotoxicity against human SW620 cells assessed as reduction in cell viability upto 30 uM incubated for 48 hrs by MTT assay; assay type: cell-based; conditions: sw-620, 48 h
NCI-H460 = assay: Cytotoxicity against human NCI-H460 cells assessed as reduction in cell viability upto 30 uM incubated for 48 hrs by MTT assay; assay type: cell-based; conditions: nci-h460, 48 h
Candida albicans = assay: Antifungal activity against Candida albicans ATCC 90028 assessed as reduction in fungal growth at 0.01 to 30 uM incubated for 24 hrs by spectrophotometry based broth microdilution assay; assay type: functional, organism-based
Bacillus subtilis = assay: Antibacterial activity against Bacillus subtilis ATCC 6633 assessed as reduction in […] growth at 0.01 to 30 uM incubated for 24 hrs by spectrophotometry based broth microdilution assay; assay type: functional, organism-based
Staphylococcus aureus [1] = assay: Antibacterial activity against Staphylococcus aureus ATCC 9144 assessed as reduction in […] growth at 0.01 to 30 uM incubated for 24 hrs by spectrophotometry based broth microdilution assay; assay type: functional, organism-based
Streptococcus pyogenes = assay: Antibacterial activity against Streptococcus pyogenes ATCC 12344 assessed as reduction in […] growth at 0.01 to 30 uM incubated for 24 hrs by spectrophotometry based broth microdilution assay; assay type: functional, organism-based
Escherichia coli [2] = assay: Antibacterial activity against Escherichia coli ATCC 11775 assessed as reduction in […] growth at 0.01 to 30 uM incubated for 24 hrs by spectrophotometry based broth microdilution assay; assay type: functional, organism-based
Staphylococcus aureus [3] = assay: Antibacterial activity against methicillin-resistant Staphylococcus aureus AUS-RBWH-MRSA-02 assessed as reduction in […] growth at 0.01 to 30 uM incubated for 24 hrs by spectrophotometry based broth microdilution assay; assay type: functional, organism-based
Escherichia coli [4] = assay: Antibacterial activity against Escherichia coli KUW-kw-AmH-11 assessed as reduction in […] growth at 0.01 to 30 uM incubated for 24 hrs by spectrophotometry based broth microdilution assay; assay type: functional, organism-based
Pseudomonas aeruginosa [5] = assay: Antibacterial activity against IMP producing Pseudomonas aeruginosa UAE-DBI-ZMH-91 assessed as reduction in […] growth at 0.01 to 30 uM incubated for 24 hrs by spectrophotometry based broth microdilution assay; assay type: functional, organism-based
Pseudomonas aeruginosa [6] = assay: Antibacterial activity against VIM producing Pseudomonas aeruginosa SA-EP-KFUH-40 assessed as reduction in […] growth at 0.01 to 30 uM incubated for 24 hrs by spectrophotometry based broth microdilution assay; assay type: functional, organism-based
Klebsiella pneumoniae [7] = assay: Antibacterial activity against NDM-producing Klebsiella pneumoniae SA-Rd-KAMC-037 assessed as reduction in […] growth at 0.01 to 30 uM incubated for 24 hrs by spectrophotometry based broth microdilution assay; assay type: functional, organism-based
Klebsiella pneumoniae [8] = assay: Antibacterial activity against OXA-48-producing Klebsiella pneumoniae SA-Rd-KAMC-014 assessed as reduction in […] growth at 0.01 to 30 uM incubated for 24 hrs by spectrophotometry based broth microdilution assay; assay type: functional, organism-based
Acinetobacter baumannii = assay: Antibacterial activity against OXA-23-producing Acinetobacter baumannii SA-Rd-KAMC-083 assessed as reduction in […] growth at 0.01 to 30 uM incubated for 24 hrs by spectrophotometry based broth microdilution assay; assay type: functional, organism-based
Enterococcus faecalis [9] = assay: Antibacterial activity against vancomycin-resistant Enterococcus faecalis AUS-RBWH-VRE-01 assessed as reduction in […] growth incubated for 24 hrs by spectrophotometry based broth microdilution assay; assay type: functional, organism-based
Enterococcus faecalis [10] = assay: Antibacterial activity against vancomycin-resistant Enterococcus faecalis AUS-RBWH-VRE-01 assessed as fold reduction in growth by measuring colony formation unit at 30 uM incubated for 24 hrs by time kill assay; assay type: functional
[11] = Enterococcus faecalis, AUS-RBWH-VRE-01, 24 h, read-out: IC50

Row | SMILES | Activity (SW-620) | Activity (NCI-H460) | Activity (Candida albicans) | Activity (Bacillus subtilis) | Activity (Staphylococcus aureus [1]) | Activity (Streptococcus pyogenes) | Activity (Escherichia coli [2]) | Activity (Staphylococcus aureus [3]) | Activity (Escherichia coli [4]) | Activity (Pseudomonas aeruginosa [5]) | Activity (Pseudomonas aeruginosa [6]) | Activity (Klebsiella pneumoniae [7]) | Activity (Klebsiella pneumoniae [8]) | Activity (Acinetobacter baumannii) | IC50 (Enterococcus faecalis [9]) | IC50 (Enterococcus faecalis [9]; [11]) | fold change (FC) (Enterococcus faecalis [10]) | Activity (Enterococcus faecalis [10])
1 | CC(C)[C@H]1CC[C@@](O)(COC(=O)C2=C[C@@H]3[C@@H](C(C)C)CC[C@@](O)(COC(=O)/C(=C/[C@H]4C=C(CO)CC[C@@H]4C(C)C)CO)[C@H]3C(=O)OC2)[C@H]2C(=O)OCC(C(=O)O)=C[C@H]12 | Non-Toxic | Non-Toxic | inactive | inactive | inactive | inactive | inactive | inactive | inactive | inactive | inactive | inactive | inactive | inactive | Not Active | – | – | –
2 | CC(C)[C@H]1CC[C@@](O)(COC(=O)/C(=C/[C@H]2C=C(CO)CC[C@@H]2C(C)C)CO)[C@H]2C(=O)OCC(C(=O)O)=C[C@H]12 | Non-Toxic | Non-Toxic | inactive | inactive | inactive | inactive | inactive | inactive | inactive | inactive | inactive | inactive | inactive | inactive | – | – | – | –
3 | CC(C)[C@H]1CC[C@@](O)(COC(=O)C2=C[C@@H]3[C@@H](C(C)C)CC[C@@](O)(COC(=O)/C(=C/[C@H]4C5=C(CC[C@@H]4C(C)C)COC5=O)CO)[C@H]3C(=O)OC2)[C@H]2C(=O)OCC(C(=O)O)=C[C@H]12 | Non-Toxic | Non-Toxic | inactive | inactive | inactive | inactive | inactive | inactive | inactive | inactive | inactive | inactive | inactive | inactive | – | 1600 nM | 10000 | –
4 | CC(C)[C@H]1CC[C@@]2(OC(=O)/C(=C/[C@H]3C=C(CO)CC[C@@H]3C(C)C)CO)COC(=O)[C@H]2[C@@H]1/C=C(\CO)C(=O)O | Non-Toxic | Non-Toxic | inactive | inactive | inactive | inactive | inactive | inactive | inactive | inactive | inactive | inactive | inactive | inactive | – | – | – | –
5 | CC(C)[C@H]1CC[C@@](O)(COC(=O)C2=C[C@H]3[C@@H](OC2)[C@H](CO)CC[C@@H]3C(C)C)[C@H]2C(=O)OCC(C(=O)O)=C[C@H]12 | Non-Toxic | Non-Toxic | inactive | inactive | inactive | inactive | inactive | inactive | inactive | inactive | inactive | inactive | inactive | inactive | – | – | – | –
6 | CC(C)[C@H]1CC[C@@](O)(COC(=O)/C(=C/[C@H]2C=C(CO)CC[C@@H]2C(C)C)CO)[C@H]2C(=O)OCC(C(=O)O[C@@]34CC[C@H](C(C)C)[C@@H](/C=C(\CO)C(=O)O)[C@@H]3C(=O)OC4)=C[C@H]12 | Non-Toxic | Non-Toxic | inactive | inactive | inactive | inactive | inactive | inactive | inactive | inactive | inactive | inactive | inactive | inactive | Not Active | – | – | –
7 | CC(C)[C@H]1CC[C@@](O)(COC(=O)/C(=C/[C@@H]2[C@@H](C(C)C)CC[C@@]3(OC(=O)/C(=C/[C@H]4C=C(CO)CC[C@@H]4C(C)C)CO)COC(=O)[C@@H]23)CO)[C@H]2C(=O)OCC(C(=O)O)=C[C@H]12 | Non-Toxic | Non-Toxic | inactive | inactive | inactive | inactive | inactive | inactive | inactive | inactive | inactive | inactive | inactive | inactive | Not Active | – | – | –
8 | CC(C)[C@H]1CC[C@@]2(OC(=O)/C(=C/[C@H]3C4=C(CC[C@@H]3C(C)C)COC4=O)CO)COC(=O)[C@H]2[C@@H]1/C=C(\CO)C(=O)O | Non-Toxic | Non-Toxic | inactive | inactive | inactive | inactive | inactive | inactive | inactive | inactive | inactive | inactive | inactive | inactive | – | – | – | –
9 | CC(C)[C@H]1CC[C@@](O)(COC(=O)/C(=C/[C@H]2C3=C(CC[C@@H]2C(C)C)COC3=O)CO)[C@@H](C(=O)O)[C@@H]1/C=C(\CO)C(=O)O | Non-Toxic | Non-Toxic | inactive | inactive | inactive | inactive | inactive | inactive | inactive | inactive | inactive | inactive | inactive | inactive | – | – | – | Active
10 | CC(C)[C@H]1CC[C@@](O)(COC(=O)/C(=C/[C@H]2C3=C(CC[C@@H]2C(C)C)COC3=O)CO)[C@H]2C(=O)OCC(C(=O)O)=C[C@H]12 | Non-Toxic | Non-Toxic | inactive | inactive | inactive | inactive | inactive | inactive | inactive | inactive | inactive | inactive | inactive | inactive | – | – | – | Active
11 | CN[C@H](CC(C)C)C(=O)N[C@H]1C(=O)N[C@@H](CC(N)=O)C(=O)N[C@H]2C(=O)N[C@H]3C(=O)N[C@H](C(=O)N[C@H](C(=O)O)c4cc(O)cc(O)c4-c4cc3ccc4O)[C@H](O)c3ccc(c(Cl)c3)Oc3cc2cc(c3O[C@@H]2O[C@H](CO)[C@@H](O)[C@H](O)[C@H]2O[C@H]2C[C@](C)(N)[C@H](O)[C@H](C)O2)Oc2ccc(cc2Cl)[C@H]1O [VANCOMYCIN] | – | – | – | – | – | – | – | – | – | – | – | – | – | – | – | – | 100 | –
12 | CC(C)[C@H]1CC[C@@](O)(COC(=O)/C(=C/[C@@H]2[C@@H](C(C)C)CC[C@@](O)(COC(=O)/C(=C/[C@H]3C4=C(CC[C@@H]3C(C)C)COC4=O)CO)[C@H]2C(=O)O)CO)[C@H]2C(=O)OCC(C(=O)O)=C[C@H]12 | Non-Toxic | Non-Toxic | inactive | inactive | inactive | inactive | inactive | inactive | inactive | inactive | inactive | inactive | inactive | inactive | – | 1000 nM | 10000 | –
